# Measured values taken from patent US20240058450A1, “BCL-XL Inhibitory Compounds Having Low Cell Permeability and Antibody Drug Conjugates Including the Same” (AbbVie Inc., priority 2014, published 2024).
# Read-outs that look alike come from different tables or passages of the source.
# Tests used:
# [1] = target: Bcl-xL (Homo sapiens, UniProt Q07817); assay: Time Resolved-Fluorescence Resonance Energy Transfer (TR-FRET) binding assay, competition with probe F-Bak
# Summary of the method: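 TR-FRET binding assay run at room temperature for 2 h after mixing compound with Bcl-xL protein, F-Bak probe and Tb-labelled antibody. Test compounds diluted from a 2× 50 μM stock. Ki values derived via Wang's equation from 520/495 nm emission under 340 nm excitation, in the absence of serum or with 1% HS.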
# [2] = tested on: Molt-4 human acute lymphoblastic leukemia cells; assay: Molt-4 cell viability assay (CellTiter-Glo, 48 hours, 10% HS); type: cell-based; settings: Homo sapiens, MOLT-4, 48 h, non-permeabilized cells
# Summary of the method: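 Cells were seeded at 12,500 per well in medium with 10% human serum and exposed to a 3-fold compound dilution series from 10 μM to 0.0005 μM. After 48 h, viable cells were quantified by CellTiter-Glo luminescence. Each concentration was run in duplicate on at least 3 occasions.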
# [3] = in the presence of 1% HS, read-out: Bcl-xL Binding Ki (nM, 1% HS)
# [4] = without HS, read-out: Bcl-xL Binding Ki
# Chain of Bcl-xL (Q07817 whole entry): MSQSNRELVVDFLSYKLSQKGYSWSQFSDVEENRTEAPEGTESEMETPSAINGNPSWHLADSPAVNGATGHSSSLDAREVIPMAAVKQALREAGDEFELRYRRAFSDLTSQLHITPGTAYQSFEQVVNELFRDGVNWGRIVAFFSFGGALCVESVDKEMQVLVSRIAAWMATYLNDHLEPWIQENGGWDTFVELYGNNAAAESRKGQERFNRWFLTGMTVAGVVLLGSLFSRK
"Ki [1, 3] [nM]","Ki [1, 4] [nM]",EC50 [2] [nM],SMILES
0.097,< 0.001,255,"Cc1c(-c2ccc(N3CCc4cccc(C(=O)Nc5nc6ccccc6s5)c4C3)nc2C(=O)O)cnn1CC12CC3(C)CC(C)(C1)CC(OCCN(CCCN)CCS(=O)(=O)O)(C3)C2 [Example 1.61, 3-{1-[(3-{2-[(3-aminopropyl)(2-sulfoethyl)amino]ethoxy}-5,7-dimethyltricyclo[3.3.1.1^3,7]dec-1-yl)methyl]-5-methyl-1H-pyrazol-4-yl}-6-[8-(1,3-benzothiazol-2-ylcarbamoyl)-3,4-dihydroisoquinolin-2 (1H)-yl]pyridine-2-carboxylic acid]"
0.2,< 0.001,153,"Cc1c(-c2ccc(-c3ccc4c(c3)N(C(=O)Nc3nc5ccccc5s3)CCC4)nc2C(=O)O)cnn1CC12CC3(C)CC(C)(C1)CC(OCCNCCC(=O)O)(C3)C2 [Example 1.62, 6-[1-(1,3-benzothiazol-2-ylcarbamoyl)-1,2,3,4-tetrahydroquinolin-7-yl]-3-{1-[(3-{2-[(2-carboxyethyl)amino]ethoxy}-5,7-dimethyltricyclo[3.3.1.1^3,7]dec-1-yl)methyl]-5-methyl-1H-pyrazol-4-yl)pyridine-2-carboxylic acid]"
< 0.01,< 0.01,2.22,"Cc1c(-c2ccc(N3CCc4cccc(C(=O)Nc5nc6ccccc6s5)c4C3)nc2C(=O)O)cnn1CC12CC3(C)CC(C)(C1)CC(OCCN(C)C(=O)[C@@H](N)CCCCN(C)C)(C3)C2 [Example 1.63, 6-[8-(1,3-benzothiazol-2-ylcarbamoyl)-3,4-dihydroisoquinolin-2 (1H)-yl]-3-{1-[(3-{2-[(N′,N′-dimethyl-L-lysyl)(methyl)amino]ethoxy}-5,7-dimethyltricyclo[3.3.1.1^3,7]dec-1-yl)methyl]-5-methyl-1H-pyrazol-4-yl}pyridine-2-carboxylic acid]"
< 0.01,< 0.01,5.25,"Cc1c(-c2ccc(-c3ccc4c(c3)N(C(=O)Nc3nc5ccccc5s3)CCC4)nc2C(=O)O)cnn1CC12CC3(C)CC(C)(C1)CC(OCCN(C)CCCN)(C3)C2 [Example 1.64, 3-{1-[(3-{2-[(3-aminopropyl)(methyl)amino]ethoxy}-5,7-dimethyltricyclo[3.3.1.1^3,7]dec-1-yl)methyl]-5-methyl-1H-pyrazol-4-yl)-6-[1-(1,3-benzothiazol-2-ylcarbamoyl)-1,2,3,4-tetrahydroquinolin-7-yl]pyridine-2-carboxylic acid]"
0.32,< 0.01,346,"Cc1c(-c2ccc(-c3ccc4cccc(C(=O)Nc5nc6ccccc6s5)c4c3)nc2C(=O)O)cnn1CC12CC3(C)CC(C)(C1)CC(OCCNCCC(=O)O)(C3)C2 [Example 1.68, 6-[8-(1,3-benzothiazol-2-ylcarbamoyl)naphthalen-2-yl]-3-(1-[(3-{2-[(2-carboxyethyl)amino]ethoxy}-5,7-dimethyltricyclo[3.3.1.1^3,7]dec-1-yl)methyl]-5-methyl-1H-pyrazol-4-yl}pyridine-2-carboxylic acid]"
0.275,< 0.01,193,"Cc1c(-c2ccc(-c3ccc4nccc(C(=O)Nc5nc6ccccc6s5)c4c3)nc2C(=O)O)cnn1CC12CC3(C)CC(C)(C1)CC(OCCNCCS(=O)(=O)O)(C3)C2 [Example 1.70, 6-[4-(1,3-benzothiazol-2-ylcarbamoyl)quinolin-6-yl]-3-{1-[(3,5-dimethyl-7-{2-[(2-sulfoethyl)amino]ethoxy}tricyclo[3.3.1.1^3,7]dec-1-yl)methyl]-5-methyl-1H-pyrazol-4-yl}pyridine-2-carboxylic acid]"
0.061,< 0.01,677,"Cc1c(-c2ccc(-c3cnc4cccc(C(=O)Nc5nc6ccccc6s5)c4c3)nc2C(=O)O)cnn1CC12CC3(C)CC(C)(C1)CC(OCCNCCC(=O)O)(C3)C2 [Example 1.71, 6-[5-(1,3-benzothiazol-2-ylcarbamoyl)quinolin-3-yl]-3-{1-[(3-{2-[(2-carboxyethyl)amino]ethoxy}-5,7-dimethyltricyclo[3.3.1.1^3,7]dec-1-yl)methyl]-5-methyl-1H-pyrazol-4-yl}pyridine-2-carboxylic acid]"
34,0.88,3500,"Cc1c(-c2ccc(N3CCc4cccc(C(=O)Nc5nc6ccccc6s5)c4C3)nc2C(=O)O)cnn1CC12CC3(C)CC(C)(C1)CC(OCCNCCCc1cn([C@@H]4O[C@H](C(=O)O)[C@@H](O)[C@H](O)[C@H]4O)nn1)(C3)C2 [Example 1.73, 8-(1,3-benzothiazol-2-ylcarbamoyl)-2-{6-carboxy-5-[1-({3-[2-({3-[1-(beta-D-glucopyranuronosyl)-1H-1,2,3-triazol-4-yl]propyl}amino)ethoxy]-5,7-dimethyltricyclo[3.3.1.1^3,7]dec-1-yl}methyl)-S-methyl-1H-pyrazol-4-yl]pyridin-2-yl}-1,2,3,4-tetrahydroisoquinoline]"
0.016,< 0.01,5.7,"Cc1c(-c2ccc(-c3cc4cccc(C(=O)Nc5nc6ccccc6s5)c4[nH]3)nc2C(=O)O)cnn1CC12CC3(C)CC(C)(C1)CC(OCCNCCS(=O)(=O)O)(C3)C2 [Example 1.74, 6-[7-(1,3-benzothiazol-2-ylcarbamoyl)-1H-indol-2-yl]-3-{1-[(3,5-dimethyl-7-{2-[(2-sulfoethyl)amino]ethoxy}tricyclo[3.3.1.1^3,7]dec-1-yl)methyl]-5-methyl-1H-pyrazol-4-yl}pyridine-2-carboxylic acid]"
0.85,0.016,409,"CNCCCc1cc2c(c(C(=O)Nc3nc4ccccc4s3)c1)CN(c1ccc(-c3cnn(CC45CC6(C)CC(C)(C4)CC(OCCNCCS(=O)(=O)O)(C6)C5)c3C)c(C(=O)O)n1)CC2 [Example 1.75, 6-[8-(1,3-benzothiazol-2-ylcarbamoyl)-6-[3-(methylamino)propyl]-3,4-dihydroisoquinolin-2 (1H)-yl]-3-{1-[(3,5-dimethyl-7-{2-[(2-sulfoethyl)amino]ethoxy}tricyclo[3.3.1.1^3,7]dec-1-yl)methyl]-5-methyl-1H-pyrazol-4-yl}pyridine-2-carboxylic acid]"
< 0.01,< 0.01,2.22,"Cc1c(-c2ccc(-c3ccc4cncc(C(=O)Nc5nc6ccccc6s5)c4c3)nc2C(=O)O)cnn1CC12CC3(C)CC(C)(C1)CC(OCCNCCS(=O)(=O)O)(C3)C2 [Example 1.78, 6-[4-(1,3-benzothiazol-2-ylcarbamoyl)isoquinolin-6-yl]-3-{1-[(3,5-dimethyl-7-(2-[(2-sulfoethyl)amino]ethoxy}tricyclo[3.3.1.1^3,7]dec-1-yl)methyl]-5-methyl-1H-pyrazol-4-yl}pyridine-2-carboxylic acid]"
0.78,0.053,355,Cc1c(-c2ccc(N3CCc4cccc(C(=O)Nc5nc6ccccc6s5)c4C3)nc2C(=O)O)cnn1CC12CC3(C)CC(C)(C1)CC(OCCNCC[C@H](O)[C@H](O)CO)(C3)C2 [Example 1.80]
0.37,0.011,252,"Cc1c(-c2ccc(N3CCc4cccc(C(=O)Nc5nc6ccccc6s5)c4C3)nc2C(=O)O)cnn1CC12CC3(C)CC(C)(C1)CC(OCCNC[C@H](O)[C@@H](O)CO)(C3)C2 [Example 1.81, 6-[8-(1,3-benzothiazol-2-ylcarbamoyl)-3,4-dihydroisoquinolin-2 (1H)-yl]-3-(1-{[3,5-dimethyl-7-(2-{[(2S,3S)-2,3,4-trihydroxybutyl]amino}ethoxy)tricyclo[3.3.1.1^3,7]dec-1-yl]methyl}-5-methyl-1H-pyrazol-4-yl}pyridine-2-carboxylic acid]"
